# Reference: article PMC13578988, “No ancillary proteins are essential for the functional heterologous expression of the homomeric α6 nicotinic acetylcholine receptor from the brown castor tick Ixodes ricinus” (Current Research in Parasitology & Vector-borne Diseases, 2026)
# Key:
# [1] = tested on: Asu-ACR-16; conditions: cited from earlier work
# [2] = tested on: T1, Iricα6B (homomeric α6 nicotinic acetylcholine receptor, splice variant B); assay: two-electrode voltage clamp in Xenopus laevis oocytes expressing Iricα6B (agonist dose-response); format: cell-based, Ixodes ricinus
# T1 construct: full-length Iricα6B, 517 amino acids (exon 3b only), homopentamer
SMILES,EC50 [1],EC50 [2]
"CC(=O)OCC[N+](C)(C)C [ACh, acetylcholine]",5.9 µM,–
CC(=O)OCC[N+](C)(C)C [acetylcholine],–,2 µM
CN/C(=N/CC1CCOC1)N[N+](=O)[O-] (centres unmarked) [dinotefuran],–,0.00042 µM
O=[N+]([O-])NC1=NCCN1Cc1ccc(Cl)nc1 [imidacloprid],–,0.0116 µM
CN1CCC[C@H]1c1cccnc1 [nicotine],4.5 µM,–
